pIC50: −log10 of the molar value.

The experiment deals with T1, human intracellular domain of KDR (VEGF Receptor-2) (Homo sapiens, UniProt P35968).
T1 construct: A fusion protein containing the intracellular domain (amino acids 793 to 1357) of the KDR and N-terminally tagged to GST; made in house; host or cells: Sf9 insect cells (baculovirus, pDEST20) for GST-KDR-cyt; E. coli BL21 (pGEX-4T-1) for GST-PLCγ
T1 sequence (P35968 794-1356 limits assumed): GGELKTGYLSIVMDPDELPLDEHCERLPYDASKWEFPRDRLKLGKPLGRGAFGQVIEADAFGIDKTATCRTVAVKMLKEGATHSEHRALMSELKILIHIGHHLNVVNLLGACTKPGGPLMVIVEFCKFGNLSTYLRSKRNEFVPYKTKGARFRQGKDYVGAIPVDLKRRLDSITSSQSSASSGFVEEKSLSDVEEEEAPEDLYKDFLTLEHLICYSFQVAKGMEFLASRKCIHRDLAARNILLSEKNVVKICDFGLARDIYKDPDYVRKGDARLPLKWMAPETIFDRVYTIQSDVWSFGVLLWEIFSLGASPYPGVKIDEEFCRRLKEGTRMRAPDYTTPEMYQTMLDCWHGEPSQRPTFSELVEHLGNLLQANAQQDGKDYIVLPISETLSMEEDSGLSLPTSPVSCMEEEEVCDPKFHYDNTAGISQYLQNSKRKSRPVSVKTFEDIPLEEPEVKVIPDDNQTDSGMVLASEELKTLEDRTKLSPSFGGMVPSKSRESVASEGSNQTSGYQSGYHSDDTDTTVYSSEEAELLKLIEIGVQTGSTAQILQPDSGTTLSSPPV
The experiment can be described thus: In vitro KDR kinase assay. The class given is biochemical. To be noted: IC50 as molar concentration; GST-KDR-cyt, substrate phospholipase Cγ, ATP 100 μM, 30 min room temperature, time-resolved fluorometry. The method, then:
The intracellular domain of the KDR receptor was used in the in vitro KDR assay. This domain contains the tyrosine kinase domain of KDR, and when expressed in Sf9 cells, this domain is constitutively active i.e. the kinase domain is phosphorylated on tyrosine residues.
The compounds to be tested were dissolved in DMSO at 10 mM, stored at −20° C. and protected from light. The maximum concentration of DMSO in the in vitro assay was 0.1%. Control samples received the same concentration of solvent as the samples treated with the test compounds.
For the kinase assays, black 96 wells MaxiSorp microtiter plates were coated by an overnight incubation with 100 μl/well of a 2.5 μg/ml solution of phospholipase Cγ in TBS buffer (40 mM Tris-HCl, pH 7.4, 20 mM Mg(C2H3O2)2, 0.02% NaN3) at 4° C. The plates were washed 3 times with TBS buffer containing 0.1% Tween-20, and the residual binding sites were masked by incubation with 1% BSA in TBS buffer containing 0.1% Tween-20 for 1 h. The plates were washed again and the test compounds were added at final concentrations up to 10 μM, together with ATP at the final concentration of 100 μM in 50 μl TBS buffer/well. Then, 50 μl of the human intracellular domain of KDR (VEGF Receptor-2) finally diluted 3000-3500 fold were added and were incubated for 30 min at room temperature. The plates were washed and 100 μl of the Europium labelled PY-20 anti-phosphotyrosine antibody (Wallac, FIN) were incubated in each well at the concentration of approximately 114 ng/ml for 2 h. Then, the plates were washed and 100 μl of enhancer solution (Wallac, FIN) were incubated in each well for 5 min in the dark. The plates were read in a Victor 1420 multilabel counter, using a Europium protocol for time-resolved fluorometry (Wallac, FIN): excitation 340 nm, emission 615 nm, sample pulse cycle 400 μs. Fluorescence was measured for 400 μs between flashes after a delay time of 400 μs. The background measured in the absence of enzyme was subtracted from all samples. The molar concentrations that inhibited 50% of the maximal enzymatic activity (IC50) were calculated from the dose-response curve, by fitting a straight line between the two concentrations immediately above and below the 50% inhibition point (i.e. by solving the equation y=a+bx).
What is called pIC50 is −log10 of the IC50, conventionally taken in molar units. On to `COc1cc(F)ccc1CONC(=O)c1ccccc1NCc1ccncc1` [Compound 39, N-(4-Fluoro-2-methoxy-benzyloxy)-2-[(pyridin-4-ylmethyl)-amino]-benzamide], for which the pIC50 was 8.20.
For `Cc1ccc(CONC(=O)c2ccccc2NCc2ccncc2)c(F)c1F` [Compound 40, N-(2,3-Difluoro-4-methyl-benzyloxy)-2-[(pyridin-4-ylmethyl)-amino]-benzamide], the pIC50 is 8.00. Against the preceding compound, the pIC50 is 0.20 log units lower.
As for `Cc1ccc(CONC(=O)c2ccccc2NCc2ccncc2)cc1F` [Compound 41, N-(3-Fluoro-4-methyl-benzyloxy)-2-[(pyridin-4-ylmethyl)-amino]-benzamide], the figure is 7.70; as for `Cc1ccc(F)cc1CONC(=O)c1ccccc1NCc1ccncc1` [Compound 42, N-(5-Fluoro-2-methyl-benzyloxy)-2-[(pyridin-4-ylmethyl)-amino]-benzamide], 8.00; as for `COc1c(F)c(F)c(CONC(=O)c2ccccc2NCc2ccncc2)c(F)c1F` [Compound 43, 2-[(Pyridin-4-ylmethyl)-amino]-N-(2,3,5,6-tetrafluoro-4-methoxy-benzyloxy)benzamide], 7.70.
As for `O=C(NOCc1ccc(Br)cc1)c1ccccc1NCc1ccncc1` [Compound 44, N-(4-Bromo-benzyloxy)-2-[(pyridin-4-ylmethyl)-amino]-benzamide], the figure is 7.30.
`O=C(NOCc1ccccc1I)c1ccccc1NCc1ccncc1` [Compound 45, N-(2-Iodo-benzyloxy)-2-[(pyridin-4-ylmethyl)-amino]-benzamide] gave a pIC50 of 7.50. This pIC50 lies 0.20 log units higher than the previous one.
In the case of `O=C(NOCc1cccc(I)c1)c1ccccc1NCc1ccncc1` [Compound 46, N-(3-Iodo-benzyloxy)-2-[(pyridin-4-ylmethyl)-amino]-benzamide], the pIC50 was 7.20.
`Cc1ccc(CONC(=O)c2ccccc2NCc2ccncc2)cc1` [Compound 47, N-(4-Methyl-benzyloxy)-2-[(pyridin-4-ylmethyl)-amino]-benzamide] showed a pIC50 of 7.80.
The value for `O=C(NOCc1cccc(C#CCO)c1)c1ccccc1NCc1ccncc1` [Compound 50, N-[3-(3-Hydroxy-prop-1-ynyl)-benzyloxy]-2-[(pyridin-4-ylmethyl)-amino]-benzamide] was 7.20.
Consider `O=C(NOCc1ccccc1C#CCO)c1ccccc1NCc1ccncc1` [Compound 52, N-[2-(3-Hydroxy-prop-1-ynyl)-benzyloxy]-2-[(pyridin-4-ylmethyl)-amino]-benzamide], for which the pIC50 was 7.20.
On to `N#CCc1ccccc1CONC(=O)c1ccccc1NCc1ccncc1` [Compound 56, N-(2-Cyanomethyl-benzyloxy)-2-[(pyridin-4-ylmethyl)-amino]-benzamide], for which the pIC50 was 7.30.
As for `O=C(NOCc1ccc(CO)cc1)c1ccccc1NCc1ccncc1` [Compound 58, N-(4-Hydroxymethyl-benzyloxy)-2-[(pyridin-4-ylmethyl)-amino]-benzamide], the figure is 7.20; as for `O=C(NOCc1ccc(F)cc1C(F)(F)F)c1ccccc1NCc1ccncc1` [Compound 59, N-(4-Fluoro-2-trifluoromethyl-benzyloxy)-2-[(pyridin-4-ylmethyl)-amino]-benzamide], 7.50; as for `O=C(NOCc1c(F)cccc1C(F)(F)F)c1ccccc1NCc1ccncc1` [Compound 60, N-(2-Fluoro-6-trifluoromethyl-benzyloxy)-2-[(pyridin-4-ylmethyl)-amino]-benzamide], 7.70.
`O=C(NOCc1ccc(F)c(C(F)(F)F)c1)c1ccccc1NCc1ccncc1` [Compound 61, N-(4-Fluoro-3-trifluoromethyl-benzyloxy)-2-[(pyridin-4-ylmethyl)-amino]-benzamide] had a pIC50 of 7.80.
As for `Cc1ccc(CONC(=O)c2ccccc2NCc2ccncc2)cc1C(F)(F)F` [Compound 62, N-(4-Methyl-3-trifluoromethyl-benzyloxy)-2-[(pyridin-4-ylmethyl)-amino]-benzamide], the figure is 7.20.

The values are drawn from patent publication US8034811B2, “Hydroxamic acid esters and pharmaceutical use thereof” (Leo Pharma A/S, priority 2003, dated 2011).
